Experimental data: PMC4864329, “In vitro and in vivo efficacy, toxicity, bio-distribution and resistance selection of a novel antibacterial drug candidate” (Scientific Reports, 2016)
“And” between values parts separate entries of the source, which are not always exact repeats. Equal values may be shown once.

Tests used:
[1] = test system: Pseudomonas aeruginosa clinical isolates; test: MIC by standard microdilution, clinical isolates of Pseudomonas aeruginosa; format: cell-based
Experimental: Minimum inhibitory concentrations (MICs) of SET-M33L were determined against 76 clinical isolates of Pseudomonas aeruginosa and 73 clinical isolates of Klebsiella pneumoniae. The isolates were selected on the basis of their resistance phenotypes and major antibiotic resistance determinants, including resistance to colistin and carriage of carbapenemase-encoding genes (Table 1 and supplemental Tables S1 and S2).
MIC values were determined against a large collection of clinical isolates. Most isolates were collected during routine susceptibility testing procedures at the Clinical Microbiology Unit of Careggi University Hospital in Florence, while specific isolates were selected according to their phenotype or genotype (e.g. carriage of carbapenemase-encoding genes, inclusion in epidemic bacterial clones, resistance to colistin) from a collection of isolates already available at Department of Medical Biotechnologies, University of Siena. Detailed features of each strain, including relevant resistance phenotypes and genotypes were reported in supplemental Tables S1 and S2. MICs were determined in triplicate using a standard microdilution assay according to the guidelines of the Clinical and Laboratory Standards Institute[34]. SET-M33L was assayed using concentrations in the range 0.09–11.2 μM (0.5–64 μg/mL); testing was performed using a bacterial inoculum of 5 × 10^4 CFU/well prepared in cation-supplemented Mueller-Hinton broth (MHB) (Becton Dickinson, Franklin Lakes, NJ, USA) in a final volume of 100 μl. Results were recorded after 18–20 h of incubation at 35 °C.

[2] = test system: K. pneumoniae strain KKBO-1; format: cell-based, Klebsiella pneumoniae; conditions: K. pneumoniae KKBO-1
Experimental: Tests were performed by plating cells on SET-M33L- or colistin-containing MHB.

colistin sulfate
MIC ([1]; isolate SI_P1, phenotype none): ≤ 0.5 µg/mL | MIC ([1]; isolate SI_P2, CARB, β/I, ESC, FQ, AG, blaVIM): 2 µg/mL | MIC ([1]; isolate SI_P3, phenotype none): 2 µg/mL | MIC ([1]; isolate SI_P4, CARB, β/I, ESC, FQ, AG): ≤ 0.5 µg/mL | MIC ([1]; isolate SI_P5, CARB, ESC, β/I, FQ, AG): ≤ 0.5 µg/mL | MIC ([1]; isolate SI_P6, phenotype none): 2 µg/mL | MIC ([1]; isolate SI_P7, CARB, β/I, ESC, FQ, AG): ≤ 0.5 µg/mL | MIC ([1]; isolate SI_P8, CARB, ESC, AG): ≤ 0.5 µg/mL | MIC ([1]; isolate SI_P9, CARB, β/I, ESC, FQ, AG): ≤ 0.5 µg/mL | MIC ([1]; isolate SI_P10, CARB, β/I, ESC, FQ, AG): ≤ 0.5 µg/mL | MIC ([1]; isolate SI_P11, CARB, β/I, ESC, FQ, AG): 2 µg/mL | MIC ([1]; isolate SI_P12, CARB, β/I, ESC, FQ): 2 µg/mL | MIC ([1]; isolate SI_P13, phenotype none): 2 µg/mL | MIC ([1]; isolate SI_P14, CARB): 2 µg/mL | MIC ([1]; isolate SI_P15, CARB, β/I, ESC, FQ, AG): ≤ 0.5 µg/mL | MIC ([1]; isolate SI_P16, CARB, β/I, ESC, FQ, AG): 2 µg/mL | MIC ([1]; isolate SI_P17, CARB, β/I, ESC, FQ, AG, blaVIM): ≤ 0.5 µg/mL | MIC ([1]; isolate SI_P18, phenotype none): 1 µg/mL | MIC ([1]; isolate SI_P19, phenotype none): 2 µg/mL | MIC ([1]; isolate SI_P20, phenotype none): ≤ 0.5 µg/mL | MIC ([1]; isolate SI_P21, FQ, AG): 1 µg/mL | MIC ([1]; isolate SI_P22, phenotype none): ≤ 0.5 µg/mL | MIC ([1]; isolate SI_P23, phenotype none): ≤ 0.5 µg/mL | MIC ([1]; isolate SI_P24, phenotype none): ≤ 0.5 µg/mL | MIC ([1]; isolate SI_P25, AG): ≤ 0.5 µg/mL | MIC ([1]; isolate SI_P26, phenotype none): ≤ 0.5 µg/mL | MIC ([1]; isolate SI_P27, CARB): ≤ 0.5 µg/mL | MIC ([1]; isolate SI_P28, phenotype none): ≤ 0.5 µg/mL | MIC ([1]; isolate SI_P29, phenotype none): ≤ 0.5 µg/mL | MIC ([1]; isolate SI_P30, phenotype none): ≤ 0.5 µg/mL | MIC ([1]; isolate SI_P31, phenotype none): ≤ 0.5 µg/mL | MIC ([1]; isolate SI_P32, phenotype none): ≤ 0.5 µg/mL | MIC ([1]; isolate SI_P33, CARB, β/I, ESC, FQ): ≤ 0.5 µg/mL | MIC ([1]; isolate SI_P34, CARB, β/I): ≤ 0.5 µg/mL | MIC ([1]; isolate SI_P35, CARB, β/I, ESC, FQ): 2 µg/mL | MIC ([1]; isolate SI_P36, CARB, AG): ≤ 0.5 µg/mL | MIC ([1]; isolate SI_P37, CARB, β/I, ESC, FQ, AG): ≤ 0.5 µg/mL | MIC ([1]; isolate SI_P38, CARB, β/I, ESC, FQ, AG, blaVIM): ≤ 0.5 µg/mL | MIC ([1]; isolate SI_P39, CARB, β/I, ESC, FQ, AG, blaVIM): ≤ 0.5 μg/mL and ≤ 0.4 μM | MIC ([1]; isolate SI_P40, phenotype none): ≤ 0.5 μg/mL and ≤ 0.4 μM | MIC ([1]; isolate SI_P41, CARB, β/I, ESC, FQ, AG): ≤ 0.5 μg/mL and ≤ 0.4 μM | MIC ([1]; isolate SI_P42, phenotype none): ≤ 0.5 μg/mL and ≤ 0.4 μM | MIC ([1]; isolate SI_P43, FQ): ≤ 0.4 μM and ≤ 0.5 μg/mL | MIC ([1]; isolate SI_P44, CARB, ESC, FQ, AG): ≤ 0.5 μg/mL and ≤ 0.4 μM | MIC ([1]; isolate SI_P45, phenotype none): ≤ 0.5 μg/mL and ≤ 0.4 μM | MIC ([1]; isolate SI_P46, phenotype none): ≤ 0.5 μg/mL and ≤ 0.4 μM | MIC ([1]; isolate SI_P47, phenotype none): ≤ 0.5 μg/mL and ≤ 0.4 μM | MIC ([1]; isolate SI_P48, phenotype none): ≤ 0.5 μg/mL and ≤ 0.4 μM | MIC ([1]; isolate SI_P49, CARB, β/I, ESC, FQ, AG): ≤ 0.5 μg/mL and ≤ 0.4 μM | MIC ([1]; isolate SI_P50, phenotype none): ≤ 0.5 μg/mL and ≤ 0.4 μM | MIC ([1]; isolate SI_P51, CARB, β/I, ESC, FQ, AG): ≤ 0.5 μg/mL and ≤ 0.4 μM | MIC ([1]; isolate SI_P52, CARB, AG): ≤ 0.5 μg/mL and ≤ 0.4 μM | MIC ([1]; isolate SI_P53, CARB, β/I, ESC, FQ): ≤ 0.5 μg/mL and ≤ 0.4 μM | MIC ([1]; isolate SI_P54, CARB, β/I, FQ, AG): ≤ 0.5 μg/mL and ≤ 0.4 μM | MIC ([1]; isolate SI_P55, phenotype none): ≤ 0.5 μg/mL and ≤ 0.4 μM | MIC ([1]; isolate SI_P56, CARB): ≤ 0.5 μg/mL and ≤ 0.4 μM | MIC ([1]; isolate SI_P57, β/I): ≤ 0.5 μg/mL and ≤ 0.4 μM | MIC ([1]; isolate SI_P58, FQ, AG): ≤ 0.5 μg/mL and ≤ 0.4 μM | MIC ([1]; isolate SI_P59, β/I, ESC): ≤ 0.5 μg/mL and ≤ 0.4 μM | MIC ([1]; isolate SI_P60, CARB, β/I, ESC, FQ, AG, blaVIM): 2 μg/mL and 1.5 μM | MIC ([1]; isolate SI_P61, CARB, β/I, ESC, FQ, AG, blaVIM): ≤ 0.5 μg/mL and ≤ 0.4 μM | MIC ([1]; isolate SI_P62, CARB, β/I, ESC, FQ, AG, blaVIM): 2 μg/mL and 1.5 μM | MIC ([1]; isolate SI_P63, CARB, β/I, ESC, FQ, AG, blaVIM): ≤ 0.5 μg/mL and ≤ 0.4 μM | MIC ([1]; isolate SI_P64, CARB, β/I, ESC, FQ, AG): ≤ 0.5 μg/mL and ≤ 0.4 μM | MIC ([1]; isolate SI_P65, CARB, β/I, ESC, FQ, AG): 2 μg/mL and 1.5 μM | MIC ([1]; isolate SI_P66, CARB, FQ): ≤ 0.5 μg/mL and ≤ 0.4 μM | MIC ([1]; isolate SI_P67, CARB, β/I, ESC, FQ, AG, blaVIM): ≤ 0.5 μg/mL and ≤ 0.4 μM | MIC ([1]; isolate SI_P68, phenotype none): ≤ 0.5 μg/mL and ≤ 0.4 μM | MIC ([1]; isolate SI_P69, CARB): 2 μg/mL and 1.5 μM | MIC ([1]; isolate SI_P70, CARB): ≤ 0.5 μg/mL and ≤ 0.4 μM | MIC ([1]; isolate SI_P71, phenotype none): ≤ 0.5 μg/mL and ≤ 0.4 μM | MIC ([1]; isolate SI_P72, FQ, AG): 2 μg/mL and 1.5 μM | MIC ([1]; isolate SI_P73, β/I): ≤ 0.5 μg/mL and ≤ 0.4 μM | MIC ([1]; isolate SI_P74, phenotype none): ≤ 0.5 μg/mL and ≤ 0.4 μM | MIC ([1]; isolate SI_P75, CARB, β/I, ESC, FQ, AG, blaIMP): 2 μg/mL and 1.5 μM | MIC ([1]; isolate SI_P76, CARB, β/I, ESC, FQ, AG, blaIMP): 1 μg/mL and 0.7 μM | MIC [2]: 0.15 µM
